Measurements from US8227450B2, “Lysine-based prodrugs of aspartyl protease inhibitors and processes for their preparation” (priority 2005, dated 2012).

Assay: Bioavailability: plasma concentration after oral administration to rats
Type: in vivo, male Sprague-Dawley rats
Details: for Presence of the unchanged prodrug in the blood samples: 50 mg/kg po as aqueous solution (PBS), HPLC-MS; for Presence of the unchanged prodrug in the blood samples / Delivery of parent drug (PL-100 / PL-337) compared to non-aqueous formulations of the parent drug: rat; for Delivery of parent drug (PL-100 / PL-337) compared to non-aqueous formulations of the parent drug: aqueous dosing, 50 mg/kg po; for AUC: rat plasma, 3 rats
Protocol: To assess the extent of in vivo cleavage of the phosphate group from the putative compounds, PL-100, PL-462 (based on PL-100), PL-337 and PL-515 (based on PL-337) compounds were administered per os (po) (50 mg/kg) to male Sprague-Dawley rats and their plasma concentration measured at different time intervals post-administration. All test articles (PL-100, PL-462, PL-337 and PL-515) were prepared in different vehicle at the final concentration of 25 mg/mL. The vehicle composition is as follows: (1) 20% ethanol; 50% propylene glycol; 0.05% w/v Tween 20 and water (Mix); (2) PBS buffer (PBS). Test articles were administered to male Sprague-Dawley rats at a single oral dose of 50 mg/kg. Each article was tested in three rats. Blood samples (0.2-0.3 mL) were collected at the post-dose time of 10, 20, 40, 60, 120, 180 and 360 minutes. The harvested blood was centrifuged to isolate plasma. The resulting plasma was separated and stored at −70° C. Plasma samples together with standards and quality control samples were treated to precipitate proteins, then analyzed by HPLC-MS, for the presence of PL-462, PL-100, PL-515 and PL-337.

[1] = prodrug dosed 50 mg/Kg po in PBS vehicle, parent drug detected (PL-100 or PL-337)
[2] = parent drug dosed 50 mg/Kg po in Mix vehicle (20% ethanol; 50% propylene glycol; 0.05% w/v Tween 20 and water)

AUC [2] | SMILES | Presence of the unchanged prodrug in the blood samples | Delivery of parent drug (PL-100 / PL-337) compared to non-aqueous formulations of the parent drug | AUC [1]
 | COC(=O)N[C@H](C(=O)NCCCC[C@@H](COP(=O)([O-])[O-])N(CC(C)C)S(=O)(=O)c1ccc(N)cc1)C(c1ccccc1)c1ccccc1.[Na+].[Na+] [PL-462, (1S,5S)-(1-{5-[(4-amino-benzenesulfonyl)-isobutyl-amino]-6-phosphonooxy-hexylcarbamoyl}-2,2-diphenyl-ethyl)-carbamic acid methyl ester sodium salt] | None of the PL-462 and PL-515 compounds, delivered as aqueous solutions, are detected | equivalent to slightly superior | 0.816 ± 0.295 μg/hr * ml
0.675 ± 0.171 μg/hr * ml | COC(=O)N[C@H](C(=O)NCCCC[C@@H](CO)N(CC(C)C)S(=O)(=O)c1ccc(N)cc1)C(c1ccccc1)c1ccccc1 [PL-100, (1S,5S)-(1-{5-[(4-amino-benzenesulfonyl)-isobutyl-amino]-6-hydroxy-hexylcarbamoyl}-2,2-diphenyl-ethyl)-carbamic acid methyl ester] |  |  | 
 | COC(=O)N[C@H](C(=O)NCCCC[C@@H](COP(=O)(O)O)N(CC(C)C)S(=O)(=O)c1ccc(N)c(F)c1)C(c1ccccc1)c1ccccc1 [PL-515, (1S,5S)-(1-{5-[(4-amino-3-fluoro-benzenesulfonyl)-isobutyl-amino]-6-phosphonooxy-hexylcarbamoyl}-2,2-diphenyl-ethyl)-carbamic acid methyl ester] | None of the PL-462 and PL-515 compounds, delivered as aqueous solutions, are detected | equivalent to slightly superior | 1.075 ± 0.625 μg/hr * ml
1.180 ± 0.196 μg/hr * ml | COC(=O)N[C@H](C(=O)NCCCC[C@@H](CO)N(CC(C)C)S(=O)(=O)c1ccc(N)c(F)c1)C(c1ccccc1)c1ccccc1 [PL-337, (1-{5-[(4-amino-3-fluoro-benzenesulfonyl)-isobutyl-amino]-6-hydroxy-hexylcarbamoyl}-2,2-diphenyl-ethyl)-carbamic acid methyl ester] |  |  | 
